Literature values as cited in patent US8088760B2, “Benzoxazole carboxamide inhibitors of poly(ADP-ribose)polymerase (PARP)” (BioMarin Pharmaceutical Inc., priority 2008, dated 2012).
pKi: −log10 of the molar value.

Assays:
[1] = tested on: BRCA2-deficient cell line V-C8; settings: BRCA2-deficient cell line V-C8 compared with the BRCA2 wild type control
[2] = target: PARP-1 (Homo sapiens, UniProt P09874); settings: PARP-1 inhibitor
[3] = tested on: BRCA2-deficient tumors
[4] = tested on: CAPAN-1 cells; settings: CAPAN-1 cells maintained in DMEM supplemented with FCS (20% v/v), glutamine and antibiotics

Chain of PARP-1 (P09874 whole entry, species assumed): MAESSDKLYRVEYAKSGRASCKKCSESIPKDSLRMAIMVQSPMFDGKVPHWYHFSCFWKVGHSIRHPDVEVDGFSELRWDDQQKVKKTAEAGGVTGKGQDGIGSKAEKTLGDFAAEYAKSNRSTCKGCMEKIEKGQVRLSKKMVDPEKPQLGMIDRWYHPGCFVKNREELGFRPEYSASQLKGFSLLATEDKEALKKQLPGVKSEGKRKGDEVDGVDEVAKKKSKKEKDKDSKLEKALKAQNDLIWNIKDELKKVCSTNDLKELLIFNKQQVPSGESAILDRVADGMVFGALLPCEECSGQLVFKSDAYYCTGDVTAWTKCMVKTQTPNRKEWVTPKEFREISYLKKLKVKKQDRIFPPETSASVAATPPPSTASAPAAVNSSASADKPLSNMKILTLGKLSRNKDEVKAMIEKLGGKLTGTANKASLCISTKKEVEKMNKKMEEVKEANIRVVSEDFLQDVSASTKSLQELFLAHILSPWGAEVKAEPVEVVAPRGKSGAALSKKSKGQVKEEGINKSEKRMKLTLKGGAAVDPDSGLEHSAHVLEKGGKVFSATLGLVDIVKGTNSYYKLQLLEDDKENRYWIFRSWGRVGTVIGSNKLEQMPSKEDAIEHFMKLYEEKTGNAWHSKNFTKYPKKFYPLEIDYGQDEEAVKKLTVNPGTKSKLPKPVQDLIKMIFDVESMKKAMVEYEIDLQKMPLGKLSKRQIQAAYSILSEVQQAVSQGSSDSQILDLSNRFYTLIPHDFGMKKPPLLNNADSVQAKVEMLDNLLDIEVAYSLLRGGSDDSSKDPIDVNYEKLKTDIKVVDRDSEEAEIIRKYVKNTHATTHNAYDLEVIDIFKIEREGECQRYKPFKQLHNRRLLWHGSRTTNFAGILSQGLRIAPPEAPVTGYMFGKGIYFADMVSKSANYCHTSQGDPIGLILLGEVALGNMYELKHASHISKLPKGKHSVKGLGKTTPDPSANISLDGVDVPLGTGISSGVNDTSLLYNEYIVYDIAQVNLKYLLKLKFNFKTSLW

Row | Structure (SMILES) | sensitivity in clonogenic survival assay [1] | pKi [2] | in vivo efficacy in blocking tumor growth [3] | sensitivity in clonogenic survival assay [4]
1 | CN(C)Cc1ccc(-c2nc3cccc4c3n2CCNC4=O)cc1 [AG14361] | exhibited sensitivity | 8.30 | – | –
2 | O=C1CCC(=O)N1c1cc(Cc2n[nH]c(=O)c3ccccc23)ccc1F [KU0058684] | – | – | in vivo efficacy in blocking the growth of BRCA2-deficient tumors | showing sensitivity to PARP inhibition
3 | Cc1nc2c(O)cccc2c(=O)[nH]1 [NU1025] | exhibited sensitivity | 7.30 | – | –
